In patent publication US20090324508A1, “Broad Spectrum and Skin Friendly Disinfecting Composition” (CENTENNIAL VENTURES B.V., priority 2006, published 2009):

Assay: Foam test, dispensing from a foam dispenser
Assay type: physicochemical
Details: in the presence of an alcohol
Procedure: Preferably, the foam booster used in the composition of the invention provides a stable foam when dispensing a composition consisting of 36% (w/w) ethanol and 0.2% (w/w), preferably 0.3% (w/w), of the foam booster from a foam dispenser with a relatively high air to liquid ratio, preferably an air to liquid ratio of 9-11, more preferably an air to liquid ratio of 11, on an inert and smooth surface at about 20° C. A suitable foam pump is for instance the L11 foam pump from Rexam Airspray, which has an air to liquid ratio of 11, a liquid output volume of 0.75 ml, a stroke of 14.8 mm. The foam is optimally produced by applying regular speed and pressure onto the foam dispenser, as is known to one skilled in the art.
According to this invention, a stable foam is a foam that remains as a foam for at least 5-10 seconds, preferably for at least 10-15 seconds, more preferably for at least 15-20 seconds, even more preferably for at least 20-25 seconds, most preferably for at least 25-30 seconds, as measured immediately after dispensing from a foam dispenser as mentioned above.

Row | Compound | Foam stability as foam booster
1 | CCCCCCCCCCCCc1ccc(S(=O)(=O)O)cc1 [dodecyl benzene sulphonic acid] | do not provide a stable foam
2 | sodium lauryl ether sulphate | do not provide a stable foam
